Results from US7332312B2, “Carbonyl reductase, gene thereof and use of the same” (priority 2002, dated 2008).

tested on: reductase RRG; experiment: Substrate specificity of RRG: reducing activity against various carbonyl compounds; assay type: biochemical, Rhodotorula glutinis var. dairenensis IFO 0415; conditions: pH 6.5

**Q.** `CCOC(=O)C(Cl)C(=O)c1ccccc1` (stereo not drawn) [ethyl 2-chloro-3-oxo-3-phenpropionate, ethyl 2-chloro-3-oxo-3-phen propionate] was tested. Which “% Activity” value did it give?
**A.** The value was 34%.

same assay, conditions: relative to reducing activity with 2-chloro-1-(3′-chlorophenyl)ethanone taken as 100%; substrate 1 mM, NADPH 0.25 mM, pH 6.5, 30° C.

**Q.** `O=CC(O)CO` (racemic) [DL-glyceraldehyde] was tested. Which “% Activity” value did it give?
**A.** Its value is 1%.

**Q.** Which “% Activity” value does the source give for `O=C1CCN(Cc2ccccc2)C1` [1-benyl-3-pyrolidinone] here?
**A.** Its value is 4%.

**Q.** `CCC(=O)Cc1ccccc1` [1-phenyl-2-butanone] was tested. Which “% Activity” value did it give?
**A.** Its value is 20%.

**Q.** For `CC(=O)c1ccccn1` [2-acetylpyridine], which “% Activity” value is on record?
**A.** Its value is 60%.

**Q.** `CCC(C)=O` [2-butanone] was tested. Which “% Activity” value did it give?
**A.** The value was 10%.

**Q.** For `O=C(CCl)c1cccc(Cl)c1` [2-chloro-1-(3′-chlorophenyl)ethanone], which “% Activity” value is on record?
**A.** Its value is 100%.

**Q.** With `CCCCCC(C)=O` [2-heptanone] as the compound, how does the “% Activity” value read?
**A.** Its value is 11%.

**Q.** For `CCCCC(C)=O` [2-hexanone], which “% Activity” value is on record?
**A.** Its value is 13%.

**Q.** For `O=C(CO)c1ccccc1` [2-hydroxyacetophenone], which “% Activity” value is on record?
**A.** Its value is 34%.

**Q.** With `CCC(=O)C(=O)O` [2-keto-n-butyric acid] as the compound, how does the “% Activity” value read?
**A.** The value was 7%.

**Q.** `O=Cc1ccccn1` [2-pyridinecarbaldehyde] was tested. Which “% Activity” value did it give?
**A.** The value was 45%.

**Q.** How did the “% Activity” value turn out when `COc1ccc(C(C)=O)cc1OC` [3,4-dimethoxyacetophenone] was run?
**A.** Its value is 46%.

**Q.** With `CC(=O)c1cccnc1` [3-acetylpyridine] as the compound, how does the “% Activity” value read?
**A.** Its value is 28%.

**Q.** With `O=CCCc1ccccc1` [3-phenylpropionaldehyde] as the compound, how does the “% Activity” value read?
**A.** Its value is 10%.

**Q.** `CC(=O)c1ccncc1` [4-acetylpyridine] was tested. Which “% Activity” value did it give?
**A.** The value was 44%.

**Q.** For `CC(=O)c1ccc(F)cc1` [4-fluoroacetophenone], which “% Activity” value is on record?
**A.** Its value is 30%.

**Q.** Which “% Activity” value does the source give for `CC(=O)CCO` [4-hydroxy-2-butanone] here?
**A.** Its value is 11%.

**Q.** `CC(=O)CC(C)C` [4-methyl-2-pentanone] was tested. Which “% Activity” value did it give?
**A.** Its value is 10%.

**Q.** How did the “% Activity” value turn out when `CC(C)=O` [acetone] was run?
**A.** Its value is 11%.

**Q.** Which “% Activity” value does the source give for `CC(=O)CC(C)=O` [acetylacetone] here?
**A.** The value was 23%.

**Q.** `O=Cc1ccccc1` [benzaldehyde] was tested. Which “% Activity” value did it give?
**A.** The value was 25%.

**Q.** With `O=C(c1ccccc1)C(O)c1ccccc1` (stereo not drawn) [benzoin] as the compound, how does the “% Activity” value read?
**A.** Its value is 9%.

**Q.** For `CC(=O)CC(=O)OCc1ccccc1` [benzyl acetoacetate], which “% Activity” value is on record?
**A.** Its value is 30%.

**Q.** With `CC12CCC(C(=O)C1=O)C2(C)C` (stereo not drawn) [camphorquinone] as the compound, how does the “% Activity” value read?
**A.** The value was 33%.

**Q.** For `O=C1CCCC1` [cyclopentanone], which “% Activity” value is on record?
**A.** The value was 9%.

**Q.** For `CC(=O)C1CC1` [cyclopropyl methyl ketone], which “% Activity” value is on record?
**A.** The value was 3%.

**Q.** For `CC(=O)C(C)=O` [diacetyl], which “% Activity” value is on record?
**A.** The value was 4%.

**Q.** Which “% Activity” value does the source give for `CCC(=O)CC` [diethyl ketone] here?
**A.** Its value is 17%.

**Q.** With `CC1(C)COC(=O)C1=O` [dihydro-4,4-dimethyl-furandio] as the compound, how does the “% Activity” value read?
**A.** The value was 238%.

**Q.** How did the “% Activity” value turn out when `CCOC(=O)C(C)=O` [ethly pyruvate] was run?
**A.** Its value is 247%.

**Q.** With `CCOC(=O)C(Cl)C(C)=O` (stereo not drawn) [ethyl 2-chloroacetoacetate] as the compound, how does the “% Activity” value read?
**A.** The value was 111%.

**Q.** For `CCOC(=O)C(C)C(C)=O` (stereo not drawn) [ethyl 2-methylacetoacetate], which “% Activity” value is on record?
**A.** Its value is 12%.

**Q.** How did the “% Activity” value turn out when `CCOC(=O)C1CCC(=O)C1` (stereo not drawn) [ethyl 3-oxocyclopentanecarboxylate] was run?
**A.** Its value is 32%.

**Q.** How did the “% Activity” value turn out when `CCOC(=O)CC(=O)COC(C)=O` [ethyl 4-acetoxyacetoacetate] was run?
**A.** The value was 46%.

**Q.** For `CCOC(=O)CC(=O)CN=[N+]=[N-]` [ethyl 4-azideacetoacetate], which “% Activity” value is on record?
**A.** The value was 11%.

**Q.** How did the “% Activity” value turn out when `CCOC(=O)CC(=O)COCc1ccccc1` [ethyl 4-benzyloxyacetoacetate] was run?
**A.** The value was 58%.

**Q.** How did the “% Activity” value turn out when `CCOC(=O)CC(=O)CBr` [ethyl 4-bromoacetoacetate] was run?
**A.** The value was 33%.

**Q.** Which “% Activity” value does the source give for `CCOC(=O)CC(=O)CCl` [ethyl 4-chloroacetoacetate] here?
**A.** Its value is 12%.

**Q.** Which “% Activity” value does the source give for `CCOC(=O)CC(=O)CO` [ethyl 4-hydroxyacetoacetate] here?
**A.** Its value is 22%.

**Q.** How did the “% Activity” value turn out when `CCOC(=O)CC(C)=O` [ethyl acetoacetate] was run?
**A.** The value was 35%.

**Q.** Which “% Activity” value does the source give for `CCOC(=O)CC(=O)c1ccccc1` [ethyl benzoylylacetate] here?
**A.** The value was 15%.

**Q.** How did the “% Activity” value turn out when `O=CCCCC=O` [glutaraldehyde] was run?
**A.** The value was 2%.

**Q.** With `CC(=O)CO` [hydroxyacetone] as the compound, how does the “% Activity” value read?
**A.** Its value is 16%.

**Q.** `CC1=CC(=O)CC(C)(C)C1` [isophorone] was tested. Which “% Activity” value did it give?
**A.** The value was 1%.

**Q.** Which “% Activity” value does the source give for `CC(=O)CCC(=O)O` [levulinic acid] here?
**A.** The value was 31%.

**Q.** With `O=Cc1cccc(Cl)c1` [m-chlorobenzaldehyde] as the compound, how does the “% Activity” value read?
**A.** Its value is 45%.

**Q.** `CC(=O)c1cccc(O)c1` [m-hydroxyacetophenone] was tested. Which “% Activity” value did it give?
**A.** Its value is 16%.

**Q.** `CC(=O)c1cccc([N+](=O)[O-])c1` [m-nitroacetophenone] was tested. Which “% Activity” value did it give?
**A.** The value was 35%.

**Q.** How did the “% Activity” value turn out when `O=Cc1cccc([N+](=O)[O-])c1` [m-nitrobenzaldehyde] was run?
**A.** Its value is 64%.

**Q.** Which “% Activity” value does the source give for `COC(=O)C1CCCC1=O` (stereo not drawn) [methyl 2-oxocyclopentanecarboxylate, methyl 2-oxocyclopentane carboxylate] here?
**A.** The value was 11%.

**Q.** Which “% Activity” value does the source give for `CCCCCCC(=O)C(=O)OC` [methyl 2-oxooctanoate] here?
**A.** The value was 3%.

**Q.** Which “% Activity” value does the source give for `COC(=O)CC(=O)CCl` [methyl 4-chloroacetoacetate] here?
**A.** Its value is 81%.

**Q.** How did the “% Activity” value turn out when `COC(=O)CC(C)=O` [methyl acetoacetate] was run?
**A.** Its value is 14%.

**Q.** `CC(=O)C=O` [methyl glyoxal] was tested. Which “% Activity” value did it give?
**A.** The value was 13%.

**Q.** Which “% Activity” value does the source give for `CCCC(C)=O` [methyl n-propylketone] here?
**A.** Its value is 12%.

**Q.** With `COC(=O)C(C)=O` [methyl pyrucvate] as the compound, how does the “% Activity” value read?
**A.** Its value is 208%.

**Q.** For `CCCC=O` [n-butylaldhyde], which “% Activity” value is on record?
**A.** The value was 20%.

**Q.** How did the “% Activity” value turn out when `CCCC(=O)c1ccccc1` [n-butyrophenone] was run?
**A.** Its value is 8%.

**Q.** Which “% Activity” value does the source give for `CCCCCC=O` [n-hexylaldehyde] here?
**A.** Its value is 10%.

**Q.** Which “% Activity” value does the source give for `CCCCCCCCOC(=O)CC(=O)CCl` [n-octyl 4-chloroacetoacetate] here?
**A.** The value was 72%.

**Q.** With `O=Cc1ccccc1Cl` [o-chlorobenzaldehyde] as the compound, how does the “% Activity” value read?
**A.** The value was 24%.

**Q.** `O=Cc1ccccc1[N+](=O)[O-]` [o-nitrobenza1dehyde] was tested. Which “% Activity” value did it give?
**A.** The value was 31%.

**Q.** Which “% Activity” value does the source give for `O=C(O)CC(=O)C(=O)O` [oxalacetic acid] here?
**A.** The value was 24%.

**Q.** `CC(=O)c1ccc(Cl)cc1` [p-chloroacetophenone] was tested. Which “% Activity” value did it give?
**A.** Its value is 5%.

**Q.** For `O=Cc1ccc(Cl)cc1` [p-chlorobenzaldehyde], which “% Activity” value is on record?
**A.** The value was 11%.

**Q.** For `O=Cc1ccc([N+](=O)[O-])cc1` [p-nitrobenzaldhyde], which “% Activity” value is on record?
**A.** Its value is 162%.

**Q.** For `CCC=O` [propionaldehyde], which “% Activity” value is on record?
**A.** Its value is 4%.

**Q.** For `CCC(=O)c1ccccc1` [propiophenone], which “% Activity” value is on record?
**A.** The value was 14%.

**Q.** `O=Cc1ccncc1` [pyridine-4-aldehyde] was tested. Which “% Activity” value did it give?
**A.** Its value is 55%.

**Q.** With `CC(=O)CC(=O)OC(C)(C)C` [tert-butyl acetoacetate] as the compound, how does the “% Activity” value read?
**A.** Its value is 1%.

**Q.** `O=C1COC(=O)C1` [tetrahydrofuran-2,4-dione] was tested. Which “% Activity” value did it give?
**A.** The value was 14%.

**Q.** With `O=C(/C=C/c1ccccc1)c1ccccc1` [trans-calcone] as the compound, how does the “% Activity” value read?
**A.** The value was 22%.

**Q.** How did the “% Activity” value turn out when `O=C(c1ccccc1)C(F)(F)F` [α,α,α-trifluoroacetophenon] was run?
**A.** The value was 83%.

**Q.** For methyl 2-eteneacetoacetate, which “% Activity” value is on record?
**A.** The value was 5%.
